Experimental data from publication PMC5442763, “Selective Inhibition of ADAM17 Efficiently Mediates Glycoprotein Ibα Retention During Ex Vivo Generation of Human Induced Pluripotent Stem Cell‐Derived Platelets” (Stem Cells Translational Medicine, 2016).

Columns and labels:
Human ADAM17 = target: T1, Human ADAM17 (Homo sapiens, UniProt P78536); test: MMP and ADAM activity assay (fluorescence-based, cell-free): ADAM17; type: biochemical
T1 construct: purchased R&D Systems
Source text: (§1) Human ADAM17, ADAM10, and MMP17 were from R&D Systems (Minneapolis, MN, http://www.rndsystems.com), and human MMP1, MMP2, MMP3, MMP8, MMP9, MMP13, and MMP14 were from EMD Millipore. MMP1, MMP2, MMP8, MMP9, MMP13, and MMP17 were activated using p‐aminophenylmercuric acetate (Sigma‐Aldrich) before testing. Fluorogenic substrates for measuring activity of ADAM10 and ADAM17 [Nma‐[…](Dnp)r‐NH2, based on the cleavage site of TNF‐α]; MMP1, MMP9, MMP13, and MMP14 [Dnp‐P‐Cha‐GC(Me)HAK(N‐Me‐Abz)‐NH2]; MMP3 [MOCAc‐RPKPVE‐Nva‐WRK(Dnp)‐NH2]; and MMP2, MMP8, and MMP17 [MOCAc‐PLGL‐A2pr(Dnp)‐AR‐NH2] were all provided by Peptide Institute (Osaka, Japan, https://www.peptide.co.jp/en) and used as substrates. In addition, inhibitory activities were measured using LC/MS/MS with a GPIbα‐based substrate peptide ([…]), a C terminal‐based standard peptide ([…]), and an internal standard peptide ([…]). These peptides were synthetized by Scrum (Tokyo, Japan, http://www.scrum‐net.co.jp/english/top_en.htm).

human ADAM10 = target: T2, human ADAM10 (Homo sapiens, UniProt O14672); test: MMP and ADAM activity assay (fluorescence-based): ADAM10; type: biochemical; settings: cell-free fluorescence assay
T2 construct: purchased R&D Systems
Method: as §1, with “KP‐457 and GM‐6001 were tested for their ability to inhibit MMP‐ and ADAM‐catalyzed cleavage of substrates in a fluorescence‐based assay. Human” for “Human”

human MMP1 = target: T3, human MMP1 (Homo sapiens, UniProt P03956); test: MMP and ADAM activity assay (fluorescence-based): MMP1; type: biochemical; settings: cell-free fluorescence assay
T3 construct: purchased EMD Millipore
Source text: as §1

human MMP2 = target: T4, human MMP2 (Homo sapiens, UniProt P08253); test: MMP and ADAM activity assay (fluorescence-based): MMP2; type: biochemical; settings: cell-free fluorescence assay
T4 construct: purchased EMD Millipore
Source text: as §1

human MMP3 = target: T5, human MMP3 (Homo sapiens, UniProt P08254); test: MMP and ADAM activity assay (fluorescence-based): MMP3; type: biochemical; settings: cell-free fluorescence assay
T5 construct: purchased EMD Millipore
Method: as §1, with “KP‐457 and GM‐6001 were tested for their ability to inhibit MMP‐ and ADAM‐catalyzed cleavage of substrates in a fluorescence‐based assay. Human” for “Human”

human MMP13 = target: T6, human MMP13 (Homo sapiens, UniProt P45452); test: MMP and ADAM activity assay (fluorescence-based): MMP13; type: biochemical; settings: cell-free fluorescence assay
T6 construct: purchased EMD Millipore
Source text: as §1

human MMP14 = target: T7, human MMP14 (Homo sapiens, UniProt P50281); test: MMP and ADAM activity assay (fluorescence-based): MMP14; type: biochemical; settings: cell-free fluorescence assay
T7 construct: purchased EMD Millipore
Method: as §1, with “KP‐457 and GM‐6001 were tested for their ability to inhibit MMP‐ and ADAM‐catalyzed cleavage of substrates in a fluorescence‐based assay. Human” for “Human”

human MMP17 = target: T8, human MMP17 (Homo sapiens, UniProt Q9ULZ9); test: MMP and ADAM activity assay (fluorescence-based): MMP17; type: biochemical; settings: cell-free fluorescence assay
T8 construct: purchased R&D Systems
Method: as §1, with “KP‐457 and GM‐6001 were tested for their ability to inhibit MMP‐ and ADAM‐catalyzed cleavage of substrates in a fluorescence‐based assay. Human” for “Human”

human washed platelets = test: CCCP-induced GPIbα shedding from washed platelets; type: cell-based; settings: CCCP-treated human platelets
Method: Flow cytometric analysis was performed as previously described. Briefly, iPSC‐ and ESC‐derived MKs on days 22–24 and platelets in their supernatants were stained with combinations of antibodies for 30 minutes on ice (for MKs) or at room temperature (for platelets). Samples of MKs/platelets were then washed, diluted with staining medium (phosphate‐buffered saline containing 3% fetal bovine serum), and analyzed using flow cytometry (FACSAria; BD). Trucount tubes (BD) were used to quantify the MKs and platelets.
Washed platelets were prepared as described elsewhere.

platelet aggregation = test: Platelet aggregation induced by thrombin or collagen; type: cell-based
[1] = Good laboratory practice genotoxicity studies; settings: data not shown

T1 sequence (P78536 215-824): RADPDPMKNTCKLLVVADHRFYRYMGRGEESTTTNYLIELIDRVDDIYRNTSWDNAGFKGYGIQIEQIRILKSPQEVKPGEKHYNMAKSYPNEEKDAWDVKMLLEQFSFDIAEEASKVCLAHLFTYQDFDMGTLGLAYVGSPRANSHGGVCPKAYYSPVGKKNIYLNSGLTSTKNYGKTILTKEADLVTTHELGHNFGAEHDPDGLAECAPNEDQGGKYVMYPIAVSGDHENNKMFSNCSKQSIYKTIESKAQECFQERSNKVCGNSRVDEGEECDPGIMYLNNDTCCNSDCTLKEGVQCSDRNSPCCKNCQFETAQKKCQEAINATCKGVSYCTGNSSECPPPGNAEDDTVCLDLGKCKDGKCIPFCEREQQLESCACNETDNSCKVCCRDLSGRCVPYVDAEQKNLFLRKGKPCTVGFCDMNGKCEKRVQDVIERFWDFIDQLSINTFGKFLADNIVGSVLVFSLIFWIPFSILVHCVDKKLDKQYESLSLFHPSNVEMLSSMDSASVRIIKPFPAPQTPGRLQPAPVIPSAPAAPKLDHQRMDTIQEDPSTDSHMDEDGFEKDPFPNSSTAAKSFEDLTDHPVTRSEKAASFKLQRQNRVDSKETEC
T3 sequence (P03956 100-469): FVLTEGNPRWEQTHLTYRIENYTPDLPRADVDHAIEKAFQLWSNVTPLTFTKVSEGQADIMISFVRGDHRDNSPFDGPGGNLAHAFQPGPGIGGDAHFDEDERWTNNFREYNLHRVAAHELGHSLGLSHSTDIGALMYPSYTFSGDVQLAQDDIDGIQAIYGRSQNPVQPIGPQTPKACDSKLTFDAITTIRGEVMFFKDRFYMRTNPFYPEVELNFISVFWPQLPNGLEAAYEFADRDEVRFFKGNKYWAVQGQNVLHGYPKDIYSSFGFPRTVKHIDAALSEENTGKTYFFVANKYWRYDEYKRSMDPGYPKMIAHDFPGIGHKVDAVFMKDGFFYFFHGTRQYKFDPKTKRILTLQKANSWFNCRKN
T5 sequence (P08254 100-477): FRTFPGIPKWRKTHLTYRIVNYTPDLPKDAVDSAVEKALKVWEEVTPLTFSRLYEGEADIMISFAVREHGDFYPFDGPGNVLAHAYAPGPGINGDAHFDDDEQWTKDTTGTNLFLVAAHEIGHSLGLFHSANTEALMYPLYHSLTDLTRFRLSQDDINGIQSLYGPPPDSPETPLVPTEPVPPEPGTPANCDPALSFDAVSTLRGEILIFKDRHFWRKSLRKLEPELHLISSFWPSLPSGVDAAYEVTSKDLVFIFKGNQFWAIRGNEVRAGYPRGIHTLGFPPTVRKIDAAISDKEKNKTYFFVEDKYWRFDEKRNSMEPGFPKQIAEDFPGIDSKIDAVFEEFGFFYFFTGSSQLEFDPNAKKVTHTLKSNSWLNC
T4 sequence (P08253 110-660): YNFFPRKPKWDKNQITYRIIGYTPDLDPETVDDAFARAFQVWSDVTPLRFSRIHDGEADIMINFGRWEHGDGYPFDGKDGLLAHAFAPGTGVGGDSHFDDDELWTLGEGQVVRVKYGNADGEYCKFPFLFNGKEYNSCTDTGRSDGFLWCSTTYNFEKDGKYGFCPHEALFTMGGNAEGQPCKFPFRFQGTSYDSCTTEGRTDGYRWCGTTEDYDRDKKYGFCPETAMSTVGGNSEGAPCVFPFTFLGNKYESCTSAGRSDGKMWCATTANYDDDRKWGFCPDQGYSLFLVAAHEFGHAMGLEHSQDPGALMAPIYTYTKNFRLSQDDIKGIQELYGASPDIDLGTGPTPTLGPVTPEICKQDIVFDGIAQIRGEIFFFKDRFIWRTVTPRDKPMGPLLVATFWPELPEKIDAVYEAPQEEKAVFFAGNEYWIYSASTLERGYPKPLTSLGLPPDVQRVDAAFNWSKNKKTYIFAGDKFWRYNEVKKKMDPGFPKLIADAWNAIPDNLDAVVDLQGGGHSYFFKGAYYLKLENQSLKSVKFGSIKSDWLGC
T8 sequence (Q9ULZ9 126-565 limits assumed): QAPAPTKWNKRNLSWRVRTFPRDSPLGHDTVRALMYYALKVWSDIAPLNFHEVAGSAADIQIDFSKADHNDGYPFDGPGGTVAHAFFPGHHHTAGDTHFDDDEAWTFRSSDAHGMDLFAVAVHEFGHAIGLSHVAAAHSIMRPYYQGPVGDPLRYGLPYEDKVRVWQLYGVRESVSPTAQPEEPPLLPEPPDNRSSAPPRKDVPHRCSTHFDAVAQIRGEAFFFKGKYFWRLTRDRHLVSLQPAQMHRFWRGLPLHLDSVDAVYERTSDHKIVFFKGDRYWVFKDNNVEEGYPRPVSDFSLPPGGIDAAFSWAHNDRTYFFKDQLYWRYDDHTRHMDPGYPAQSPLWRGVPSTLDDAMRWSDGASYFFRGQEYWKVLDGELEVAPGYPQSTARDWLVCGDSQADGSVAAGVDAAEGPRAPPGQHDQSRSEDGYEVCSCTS
T2 sequence (O14672 214-748): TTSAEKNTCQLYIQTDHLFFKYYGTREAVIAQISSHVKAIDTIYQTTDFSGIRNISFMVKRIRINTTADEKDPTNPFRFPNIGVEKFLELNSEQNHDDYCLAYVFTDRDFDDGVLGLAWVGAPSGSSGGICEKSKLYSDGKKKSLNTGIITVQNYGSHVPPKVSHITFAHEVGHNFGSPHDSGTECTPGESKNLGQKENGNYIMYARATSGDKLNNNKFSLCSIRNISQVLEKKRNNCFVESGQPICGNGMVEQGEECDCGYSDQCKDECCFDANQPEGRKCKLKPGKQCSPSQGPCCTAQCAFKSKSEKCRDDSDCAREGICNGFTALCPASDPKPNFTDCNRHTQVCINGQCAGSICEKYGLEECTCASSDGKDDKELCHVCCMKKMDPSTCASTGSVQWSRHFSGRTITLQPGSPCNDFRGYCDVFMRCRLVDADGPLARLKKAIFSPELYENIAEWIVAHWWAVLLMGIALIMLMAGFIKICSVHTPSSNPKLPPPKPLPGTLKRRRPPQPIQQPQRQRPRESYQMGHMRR

## CC#CCOc1ccc(S(=O)(=O)CC(c2ccc(CNS(C)(=O)=O)cc2)N(O)C=O)cc1 (stereo not shown) [KP-457, N‐(2‐{[4‐(but‐2‐yn‐1‐yloxy)phenyl]sulfonyl}‐1‐[4‐(methylsulfonamidomethyl)phenyl]ethyl)‐N‐hydroxyformamide]
Human ADAM17; cell-free enzyme assay
  potency relative to GM-6001, inhibition of cleavage of the TNF-α sequence: 10 times
Human ADAM17; cell-free enzyme assays
  selectivity for ADAM17 over other MMPs and ADAM10: > 50 times
Human ADAM17; cell-free fluorescence assay, TNF-α cleavage site substrate
  IC50: 0.0111 µM
Human ADAM10
  IC50: 0.748 µM
Human MMP1
  IC50: > 100 µM
Human MMP2
  IC50: 0.717 µM
Human MMP3
  IC50: 9.76 µM
Human MMP13
  IC50: 0.93 µM
Human MMP14
  IC50: 2.14 µM
Human MMP17
  IC50: 7.1 µM
Human washed platelets
  potency relative to GM-6001, inhibition of GPIbα shedding in the cellular assay: 10 times
Platelet aggregation
  effect on platelet aggregation induced by thrombin or collagen: no adverse effects
[1]
  genotoxicity: neither genotoxicity nor systemic toxicity
